Measurements published in ChEMBL document CHEMBL1156989, “Discovery of novel small molecule orally bioavailable C-X-C chemokine receptor 4 antagonists that are potent inhibitors of T-tropic (X4) HIV-1 replication” (J Med Chem, 2010).

Tests used:
[1] = tested on: Human immunodeficiency virus 1; assay: Antiviral activity against HIV1 NL4.3 infected in human MT4 cells expressing CD4 and CXCR4 assessed as inhibition of virus-induced cytopathicity; format: functional, organism-based; conditions: Human immunodeficiency virus 1, NL4.3, MT4
[2] = Cytotoxicity against human MT4 cells expressing CD4 and CXCR4 assessed as cell viability
[3] = biological target: T1, C-X-C chemokine receptor type 4 (Homo sapiens, UniProt P61073); assay: Antagonist activity at CXCR4 in human CEM-CCRF cells assessed as inhibition of SDF-1-induced calcium flux; format: functional, cell-based
T1 sequence (P61073 whole entry): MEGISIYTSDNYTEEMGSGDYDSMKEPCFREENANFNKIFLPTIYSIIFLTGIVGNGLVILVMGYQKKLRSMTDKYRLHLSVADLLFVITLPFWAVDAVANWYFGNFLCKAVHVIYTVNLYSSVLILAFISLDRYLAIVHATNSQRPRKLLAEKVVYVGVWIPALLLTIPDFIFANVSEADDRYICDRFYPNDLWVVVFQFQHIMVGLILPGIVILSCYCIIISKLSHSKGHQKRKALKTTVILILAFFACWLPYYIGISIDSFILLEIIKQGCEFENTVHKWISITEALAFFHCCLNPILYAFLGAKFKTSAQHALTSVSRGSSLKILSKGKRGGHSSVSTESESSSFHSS

[4] = biological target: T1, C-X-C chemokine receptor type 4; assay: Inhibition of anti-CXCR4 12G5 monoclonal antibody to CXCR4 in human SUP-T1 cells pretreated for 30 mins by flow cytometry; format: cell-based
[5] = MT4 cells expressing CD4 and CXCR4

c1ccc(CCN(Cc2ccc(CNCc3ccccn3)cc2)C2CCCc3cccnc32)nc1 (configuration not stated)
IC50 [1]: 2100 nM | CC50 [2, 5]: > 118000 nM

NCc1cccc(CN(Cc2nc3ccccc3[nH]2)C2CCCc3cccnc32)c1 (configuration not stated)
IC50 [3]: 1400 nM | IC50 [1]: 575 nM | CC50 [2, 5]: 45900 nM

NCCCN(Cc1nc2ccccc2[nH]1)C1CCCc2cccnc21 (configuration not stated)
IC50 [3]: 68 nM | IC50 [1]: 77 nM | CC50 [2, 5]: 32900 nM

NCCCCN(Cc1nc2ccccc2[nH]1)C1CCCc2cccnc21 (configuration not stated)
IC50 [1]: 4.8 nM | CC50 [2, 5]: 160000 nM

NCCCCCCN(Cc1nc2ccccc2[nH]1)C1CCCc2cccnc21 (configuration not stated)
IC50 [3]: 75 nM | IC50 [1]: 101 nM | CC50 ([2]; mt4): 30200 nM

c1ccc(CNCCN(Cc2ccc(CNCc3ccccn3)cc2)C2CCCc3cccnc32)nc1 (configuration not stated)
IC50 [1]: 60 nM | CC50 [2, 5]: 21000 nM

NC/C=C\CN(Cc1nc2ccccc2[nH]1)C1CCCc2cccnc21 (configuration not stated)
IC50 [3]: 77 nM | IC50 [1]: 15 nM | CC50 [2, 5]: 51900 nM

NC/C=C/CN(Cc1nc2ccccc2[nH]1)C1CCCc2cccnc21 (configuration not stated)
IC50 [3]: 160 nM | IC50 [1]: 28 nM | CC50 [2, 5]: 50800 nM

NCC#CCN(Cc1nc2ccccc2[nH]1)C1CCCc2cccnc21 (configuration not stated)
IC50 [3]: 973 nM | IC50 [1]: 170 nM | CC50 [2, 5]: 10800 nM

c1ccc(CNCc2ccc(CN(Cc3nc4ccccc4s3)C3CCCc4cccnc43)cc2)nc1 (configuration not stated)
IC50 [1]: 4600 nM | CC50 [2, 5]: 22300 nM

c1ccc(CNCc2ccc(CNC3CCCCc4cccnc43)cc2)nc1 (configuration not stated)
IC50 [1]: 2500 nM

c1ccc(CNCc2ccc(CN(CCc3nc4ccccc4[nH]3)C3CCCc4cccnc43)cc2)nc1 (configuration not stated)
IC50 [1]: 1100 nM | CC50 [2, 5]: 23100 nM

c1ccc(CNCc2ccc(CN(Cc3nc4ccccc4[nH]3)[C@@H]3CCCc4cccnc43)cc2)nc1
IC50 [1]: 1080 nM | IC50 [4]: 29200 nM

c1ccc(CNCc2ccc(CN(Cn3cnc4ccccc43)C3CCCc4cccnc43)cc2)nc1 (configuration not stated)
IC50 [1]: 18800 nM | CC50 [2, 5]: 21000 nM

c1ccc(CNCc2ccc(CN(Cc3ccccn3)C3CCc4cccnc43)cc2)nc1 (configuration not stated)
IC50 [1]: 4900 nM | CC50 [2, 5]: 124000 nM

c1ccc(CNCc2ccc(CN(Cc3ccccn3)C3CCCc4cccnc43)cc2)nc1 (configuration not stated)
IC50 [1]: 270 nM | CC50 [2, 5]: 44000 nM

c1ccc(CNCc2ccc(CNC3CCc4cccnc43)cc2)nc1 (configuration not stated)
IC50 [1]: 14100 nM

c1ccc(CNCc2ccc(CNC3CCCc4cccnc43)cc2)nc1 (configuration not stated)
IC50 [1]: 2700 nM

c1ccc(CN(Cc2ccc(CNCc3ccccn3)cc2)C2CCCc3cccnc32)cc1 (configuration not stated)
IC50 [1]: > 4300 nM | CC50 [2, 5]: 21000 nM

c1ccc(CNCc2ccc(CN(Cc3ncc[nH]3)C3CCCc4cccnc43)cc2)nc1 (configuration not stated)
IC50 [1]: 200 nM | CC50 [2, 5]: 500 nM

NCCN(Cc1ccc(CNCc2ccccn2)cc1)C1CCCc2cccnc21 (configuration not stated)
IC50 [1]: > 25000 nM | CC50 [2, 5]: 126000 nM

c1ccc(CNCc2ccc(CN(Cc3nc4ccccc4o3)C3CCCc4cccnc43)cc2)nc1 (configuration not stated)
IC50 [1]: 9100 nM | CC50 [2, 5]: 204000 nM

c1ccc(CNCCN(Cc2ccc(CNCc3ccccn3)cc2)C2CCCc3cccnc32)cc1 (configuration not stated)
IC50 [1]: 920 nM | CC50 [2, 5]: 23000 nM

c1ccc(CNCc2ccc(CN(CCCc3nc4ccccc4[nH]3)C3CCCc4cccnc43)cc2)nc1 (configuration not stated)
IC50 [1]: 1200 nM | CC50 [2, 5]: 101000 nM

O=C(Nc1ccc(CN(Cc2nc3ccccc3[nH]2)C2CCCc3cccnc32)cc1)c1ccccn1 (configuration not stated)
IC50 [1]: 660 nM | CC50 [2, 5]: 37500 nM

O=C(NCc1ccc(CN(Cc2nc3ccccc3[nH]2)C2CCCc3cccnc32)cc1)c1ccccn1 (configuration not stated)
IC50 [1]: 880 nM | CC50 [2, 5]: 36800 nM

CN(C)CCCCN(Cc1nc2ccccc2[nH]1)C1CCCc2cccnc21 (configuration not stated)
IC50 [3]: 87 nM | IC50 [1]: 51 nM | CC50 [2, 5]: 29500 nM

CNCCCCN(Cc1nc2ccccc2[nH]1)C1CCCc2cccnc21 (configuration not stated)
IC50 [3]: 190 nM | CC50 [2, 5]: 28200 nM

O=C(Nc1ccccn1)c1ccc(CN(Cc2nc3ccccc3[nH]2)C2CCCc3cccnc32)cc1 (configuration not stated)
IC50 [1]: 980 nM | CC50 [2, 5]: 34300 nM

O=C(NCc1ccccn1)c1ccc(CN(Cc2nc3ccccc3[nH]2)C2CCCc3cccnc32)cc1 (configuration not stated)
IC50 [1]: 1440 nM | CC50 [2, 5]: 127000 nM

NCc1ccc(CN(Cc2nc3ccccc3[nH]2)C2CCCc3cccnc32)cc1 (configuration not stated)
IC50 [3]: 119 nM | IC50 [1]: 167 nM | CC50 [2, 5]: 238000 nM

NCCCCCN(Cc1nc2ccccc2[nH]1)C1CCCc2cccnc21 (configuration not stated)
IC50 [3]: 514 nM | IC50 [1]: 74 nM | CC50 [2, 5]: 30200 nM

N#CCCCCN(Cc1nc2ccccc2[nH]1)C1CCCc2cccnc21 (configuration not stated)
IC50 [3]: 442 nM | IC50 [1]: 774 nM | CC50 ([2]; mt4): 55300 nM

NCCCC(=O)N(Cc1nc2ccccc2[nH]1)C1CCCc2cccnc21 (configuration not stated)
IC50 [3]: 3200 nM | IC50 [1]: 2640 nM | CC50 [2, 5]: 152000 nM

c1ccc(CNCc2ccc(CN(Cc3nc4ccccc4[nH]3)C3CCCc4cccnc43)cc2)cc1 (configuration not stated)
IC50 [1]: 95 nM | CC50 [2, 5]: 26400 nM

NCc1ccccc1CN(Cc1nc2ccccc2[nH]1)C1CCCc2cccnc21 (configuration not stated)
IC50 [3]: 50 nM | IC50 [1]: 21 nM | CC50 [2, 5]: 29600 nM

NCCCCN(Cc1nc2ccccc2[nH]1)[C@@H]1CCCc2cccnc21
IC50 [1]: 144 nM

NCCN(Cc1nc2ccccc2[nH]1)C1CCCc2cccnc21 (configuration not stated)
IC50 [3]: 1370 nM | IC50 [1]: 1370 nM | CC50 [2, 5]: 6860 nM

c1ccc(CNCc2ccc(CN(Cc3cc4ccccc4[nH]3)C3CCCc4cccnc43)cc2)nc1 (configuration not stated)
IC50 [1]: 1600 nM | CC50 [2, 5]: 8000 nM
